{"source": "paper PMC6694155", "about": "“PTPσ inhibitors promote hematopoietic stem cell regeneration” (Nature Communications, 2019)", "key": {"BM CD34−KSL HSCs": {"tested_on": "BM CD34−KSL HSCs", "test": "7 day culture of non-irradiated BM CD34−KSL cells in TSF media", "type": "cell-based, mouse", "conditions": "for Supplementary Figure 3a (center panel): 7 day culture of BM CD34−KSL cells / Supplementary Figure 3a (left panel): 7 day culture of BM CD34−KSL cells / Supplementary Figure 3a (right panel): 7 day culture of BM CD34−KSL cells: replicates", "source_text": "BM cells were first treated with ACK lysis buffer (Sigma Aldrich) and lineage-committed cells were removed using a Direct Lineage Cell Depletion Kit (Miltenyi Biotec, #130-110-470, 1:5). Lin^− cells were stained with APC-Cy7-conjugated anti-mouse Sca1 (BD Biosciences, #560654, 1:100), PE-conjugated anti-ckit (BD Biosciences, #553355, 1:100), V450 lineage cocktail (BD Biosciences, #561301, 1:10), and FITC-conjugated anti-CD34 (BD Biosciences, #553733, 1:100) antibodies. Sterile cell sorting was conducted on a BD FACS-Aria cytometer. Purified KSL cells and CD34^−c-kit^+sca-1^+Lin^− (CD34^−KSL) cells were collected into IMDM (Life Technologies) + 10% FBS + 1% penicillin–streptomycin.\nCFC assays (colony-forming unit-granulocyte monocyte), burst-forming unit-erythroid, and CFU-GEMM were performed using MethoCult GF M3434 (Stemcell Technologies)[6]. For all in vitro assays, BM CD34^−KSL cells, KSL cells, and Lin^− cells were cultured in TSF media (IMDM, 10% FBS, 1% pen-strep, 20 ng/mL recombinant mouse TPO, 125 ng/mL recombinant mouse SCF, 50 ng/mL recombinant mouse Flt3 ligand). Recombinant mouse SCF, Flt3 ligand, and TPO were purchased from R&D Systems. For competitive repopulation assays, BM cells were isolated from donor 10–12-week-old female CD45.2^+ mice. Recipient 10-week-old female CD45.1^+ B6.SJL mice were irradiated with 950 cGy TBI using a Cs137 irradiator and donor BM cells were administered via tail vein injection along with a competing dose of 1 × 10^5 non-irradiated host BM cells. Multilineage donor hematopoietic cell engraftment was measured in the PB by flow cytometry."}, "[1]": {"biological_target": "T1, PPα (Protein Phosphatase 1 Catalytic Subunit alpha) (Homo sapiens, UniProt P62136)", "T1 construct": "purchased Eurofins Pharma Discovery Services UK", "T1 sequence (P62136 whole entry)": "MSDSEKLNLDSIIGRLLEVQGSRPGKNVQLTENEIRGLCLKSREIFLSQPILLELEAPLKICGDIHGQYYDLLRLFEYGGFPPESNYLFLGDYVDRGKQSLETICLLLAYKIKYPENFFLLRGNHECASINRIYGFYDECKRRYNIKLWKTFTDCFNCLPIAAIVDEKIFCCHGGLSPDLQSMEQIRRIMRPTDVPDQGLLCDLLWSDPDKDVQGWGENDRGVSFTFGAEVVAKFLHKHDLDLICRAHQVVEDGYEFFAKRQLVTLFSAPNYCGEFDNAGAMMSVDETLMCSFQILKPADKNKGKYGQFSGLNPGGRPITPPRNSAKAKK", "test": "PhosphataseProfiler screen: PPα", "type": "biochemical", "conditions": "replicates", "procedure": "(§1) Compound DJ001 was evaluated in a PhosphataseProfiler™ screen at 10 μM and 1 μM (2.7 μg/mL and 0.27 μg/mL) concentrations at Eurofins Pharma Discovery Services UK (Study number UK022-0004033) against a panel of 21 Phosphatases. In each experiment, the respective reference antagonist/agonist was tested directly with DJ001 and the data were compared with historical values determined at Eurofins. DJ001 compound inhibition was calculated as percentage inhibition of the enzymatic activity compared with control."}, "human CD34+CD38− cells": {"tested_on": "human CD34+CD38− cells", "test": "Annexin V/7AAD apoptosis assay of irradiated human BM CD34+ cells", "type": "cell-based", "procedure": "Eight- to ten-week-old female C57BL/6 mice were irradiated with 500 cGy TBI followed by subcutaneous injections of 5 mg/kg DJ001 or vehicle, or 5 mg/kg DJ001 plus 40 mg/kg EHT1864. Twenty four hours after irradiation, mice were killed to collect BM cells for Annexin V apoptosis analysis. BM cells were stained with APC-Cy7-conjugated anti-mouse Sca1 (BD Biosciences, #560654, 1:100), PE-conjugated anti-ckit (BD Biosciences, #553355, 1:100), and V450 lineage cocktail (BD Biosciences, #561301, 1:10) antibodies for 30 min at 4 °C. Cells were then resuspended in 1× Annexin V binding buffer and then stained with FITC-conjugated anti-Annexin V antibody (BD Biosciences, #556547,1:50) and 7AAD antibody (BD Biosciences, #559925, 1:40)[68]. For in vitro human BM cell apoptosis assays, isolated human BM CD34^+ cells were plated into 96-well plates and then irradiated with 300 cGy. Immediately after irradiation, cells were treated with 5 μg/mL DJ001 or vehicle for 24 h and then collected for Annexin V cell apoptosis analysis. For cell cycle analysis, BM KSL cells were irradiated at 300 cGy and then treated with 1 μg/mL DJ001 or vehicle for 36 h. Subsequently, cells were resuspended in 200 μL of PBS, fixed with 1 mL of ice-cold fixation solution (0.25% Saponin, 2.5% PFA, 2% fetal calf serum (FCS) in PBS), and incubated for 30 min on ice. Cells were washed in Saponin buffer (0.25% Saponin, 2% FCS in PBS) and resuspended in 200 μL of Saponin buffer containing 20 μL of FITC-conjugated anti-Ki67 antibody (BD Biosciences, #556026, 1:10) and 1 μL of RNase (Qiagen, #19101, 100 mg/mL). After 30 min of incubation, cells were washed in Saponin buffer and resuspended for flow analysis in 200 μL of Saponin buffer containing 5 μL 7AAD (BD Biosciences, #559925, 1:40)."}, "[2]": {"biological_target": "T2, PTPN22 (Protein Tyrosine Phosphatase Non-Receptor Type 22) (Homo sapiens, UniProt Q9Y2R2)", "T2 construct": "purchased Eurofins Pharma Discovery Services UK", "T2 sequence (Q9Y2R2 whole entry, species assumed)": "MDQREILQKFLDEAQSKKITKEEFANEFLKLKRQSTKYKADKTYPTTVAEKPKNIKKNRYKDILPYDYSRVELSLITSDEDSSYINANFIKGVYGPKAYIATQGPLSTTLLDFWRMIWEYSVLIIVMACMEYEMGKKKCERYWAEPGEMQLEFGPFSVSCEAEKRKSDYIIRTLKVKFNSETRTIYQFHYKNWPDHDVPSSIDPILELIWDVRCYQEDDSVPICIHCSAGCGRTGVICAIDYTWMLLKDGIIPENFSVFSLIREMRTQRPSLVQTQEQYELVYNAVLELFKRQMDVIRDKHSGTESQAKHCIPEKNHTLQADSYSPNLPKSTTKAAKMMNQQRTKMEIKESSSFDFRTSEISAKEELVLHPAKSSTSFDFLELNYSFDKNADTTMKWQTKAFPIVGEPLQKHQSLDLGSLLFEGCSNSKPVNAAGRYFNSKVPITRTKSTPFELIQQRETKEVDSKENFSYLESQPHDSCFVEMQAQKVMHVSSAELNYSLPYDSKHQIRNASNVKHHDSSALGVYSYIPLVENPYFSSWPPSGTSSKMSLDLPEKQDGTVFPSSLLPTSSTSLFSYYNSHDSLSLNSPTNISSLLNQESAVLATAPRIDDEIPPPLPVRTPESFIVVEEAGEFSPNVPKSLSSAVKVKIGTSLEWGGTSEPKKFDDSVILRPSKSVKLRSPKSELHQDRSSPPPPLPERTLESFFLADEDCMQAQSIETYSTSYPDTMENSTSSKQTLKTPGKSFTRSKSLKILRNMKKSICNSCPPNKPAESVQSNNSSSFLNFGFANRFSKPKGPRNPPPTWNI", "test": "PhosphataseProfiler screen: PTPN22", "type": "biochemical", "conditions": "replicates", "procedure": "as §1"}, "[3]": {"biological_target": "T3, LMPTP-B (Low Molecular Weight Protein Tyrosine phosphatase B) (Homo sapiens, UniProt P24666)", "T3 construct": "purchased Eurofins Pharma Discovery Services UK", "T3 sequence (P24666 1-158 isoform P24666-2, species assumed)": "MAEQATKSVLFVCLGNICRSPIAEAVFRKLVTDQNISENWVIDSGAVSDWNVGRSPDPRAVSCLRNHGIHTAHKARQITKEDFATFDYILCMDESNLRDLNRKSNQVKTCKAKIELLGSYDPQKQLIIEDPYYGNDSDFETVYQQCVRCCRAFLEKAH", "test": "PhosphataseProfiler screen: LMPTP-B", "type": "biochemical", "conditions": "replicates", "procedure": "as §1"}, "[4]": {"biological_target": "T4, VHR (Dual Specificity Phosphatase 3) (Homo sapiens, UniProt P51452)", "T4 construct": "purchased Eurofins Pharma Discovery Services UK", "T4 sequence (P51452 whole entry, species assumed)": "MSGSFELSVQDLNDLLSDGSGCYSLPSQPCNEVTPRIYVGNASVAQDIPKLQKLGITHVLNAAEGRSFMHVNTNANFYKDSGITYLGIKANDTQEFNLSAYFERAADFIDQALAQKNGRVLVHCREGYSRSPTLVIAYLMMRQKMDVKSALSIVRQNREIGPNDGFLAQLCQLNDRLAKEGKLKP", "test": "PhosphataseProfiler screen: VHR", "type": "biochemical", "conditions": "replicates", "procedure": "as §1"}, "[5]": {"biological_target": "T5, CD45 (Protein Tyrosine Phosphatase, receptor type C) (Homo sapiens, UniProt P08575)", "T5 construct": "purchased Eurofins Pharma Discovery Services UK", "T5 sequence (P08575 26-1306, species assumed)": "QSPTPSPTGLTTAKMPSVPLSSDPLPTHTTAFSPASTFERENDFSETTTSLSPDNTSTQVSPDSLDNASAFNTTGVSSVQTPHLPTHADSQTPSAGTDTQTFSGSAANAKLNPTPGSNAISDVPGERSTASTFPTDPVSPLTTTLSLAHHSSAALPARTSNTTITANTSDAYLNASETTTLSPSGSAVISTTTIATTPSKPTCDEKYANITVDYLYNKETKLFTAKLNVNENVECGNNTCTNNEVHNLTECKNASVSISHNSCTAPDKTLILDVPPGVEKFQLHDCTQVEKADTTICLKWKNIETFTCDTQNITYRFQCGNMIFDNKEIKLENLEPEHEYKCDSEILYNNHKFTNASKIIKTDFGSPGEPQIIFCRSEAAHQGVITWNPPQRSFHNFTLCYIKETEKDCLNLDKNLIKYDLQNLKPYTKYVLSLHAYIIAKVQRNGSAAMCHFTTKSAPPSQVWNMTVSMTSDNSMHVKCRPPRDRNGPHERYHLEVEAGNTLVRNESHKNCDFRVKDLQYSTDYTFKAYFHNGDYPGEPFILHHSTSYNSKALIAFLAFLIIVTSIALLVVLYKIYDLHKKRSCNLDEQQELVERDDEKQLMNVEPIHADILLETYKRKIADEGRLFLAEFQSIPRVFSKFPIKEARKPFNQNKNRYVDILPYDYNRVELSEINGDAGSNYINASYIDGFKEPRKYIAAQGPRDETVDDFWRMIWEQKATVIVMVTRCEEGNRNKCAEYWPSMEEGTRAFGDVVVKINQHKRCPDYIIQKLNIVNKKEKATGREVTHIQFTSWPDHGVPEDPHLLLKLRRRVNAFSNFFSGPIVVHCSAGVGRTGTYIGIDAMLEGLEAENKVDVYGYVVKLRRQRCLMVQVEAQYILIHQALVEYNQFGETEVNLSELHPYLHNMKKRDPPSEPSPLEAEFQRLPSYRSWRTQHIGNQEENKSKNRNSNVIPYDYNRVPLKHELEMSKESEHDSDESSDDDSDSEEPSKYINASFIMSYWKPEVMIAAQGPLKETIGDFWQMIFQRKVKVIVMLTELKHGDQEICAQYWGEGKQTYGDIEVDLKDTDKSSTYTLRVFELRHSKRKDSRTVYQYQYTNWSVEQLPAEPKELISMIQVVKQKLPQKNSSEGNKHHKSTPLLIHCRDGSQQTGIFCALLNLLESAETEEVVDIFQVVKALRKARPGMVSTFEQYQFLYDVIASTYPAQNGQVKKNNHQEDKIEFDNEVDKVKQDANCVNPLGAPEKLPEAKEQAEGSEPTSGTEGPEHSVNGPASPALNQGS", "test": "PhosphataseProfiler screen: CD45", "type": "biochemical", "conditions": "replicates", "procedure": "as §1"}, "[6]": {"conditions": "irradiated human BM CD34+ cells, replicates"}}, "note": "Where “and” joins values, the source holds several entries; their conditions need not be identical. Identical values can stand only once.", "data": [{"smiles": "O=C(/C=C\\Nc1cccc([N+](=O)[O-])c1)c1ccccc1", "note": "[DJ001, (Z)-3-((3-nitrophenyl)amino)-1-phenylprop-2-en-1-one]", "values": [{"measurement": "Supplementary Figure 3a (center panel): 7 day culture of BM CD34−KSL cells", "setting": "BM CD34−KSL HSCs; 10 ng/mL", "value": "8.03 and 6.26 and 7.07 and 7.49"}, {"measurement": "Supplementary Figure 3a (left panel): 7 day culture of BM CD34−KSL cells", "setting": "BM CD34−KSL HSCs; 10 ng/mL", "value": "107000 and 154000 and 141000 and 135000"}, {"measurement": "Supplementary Figure 3a (right panel): 7 day culture of BM CD34−KSL cells", "setting": "BM CD34−KSL HSCs; 10 ng/mL", "value": "8589 and 9633 and 9964 and 10109"}, {"measurement": "Supplementary Figure 3a (center panel): 7 day culture of BM CD34−KSL cells", "setting": "BM CD34−KSL HSCs; 100 ng/mL", "value": "15.07 and 8.84 and 9.18 and 11.37"}, {"measurement": "Supplementary Figure 3a (left panel): 7 day culture of BM CD34−KSL cells", "setting": "BM CD34−KSL HSCs; 100 ng/mL", "value": "127000 and 142000 and 174000 and 219000"}, {"measurement": "Supplementary Figure 3a (right panel): 7 day culture of BM CD34−KSL cells", "setting": "BM CD34−KSL HSCs; 100 ng/mL", "value": "19062 and 12549 and 15920 and 24836"}, {"measurement": "Supplementary Figure 3a (center panel): 7 day culture of BM CD34−KSL cells", "setting": "BM CD34−KSL HSCs; 1000 ng/mL", "value": "16.07 and 11.49 and 11 and 12.87"}, {"measurement": "Supplementary Figure 3a (left panel): 7 day culture of BM CD34−KSL cells", "setting": "BM CD34−KSL HSCs; 1000 ng/mL", "value": "131000 and 209000 and 128000 and 136000"}, {"measurement": "Supplementary Figure 3a (right panel): 7 day culture of BM CD34−KSL cells", "setting": "BM CD34−KSL HSCs; 1000 ng/mL", "value": "21058 and 24017 and 14076 and 17507"}, {"measurement": "percentages and numbers of BM KSL cells in culture vs control", "setting": "BM CD34−KSL HSCs; 10–1,000 ng/mL DJ001, 7 days", "value": "increased the percentages and numbers of BM KSL cells"}, {"measurement": "Supplementary Figure 1: PP activity", "setting": "[1]; 2.7 μg/mL DJ001", "value": "87 and 90 and 89"}, {"measurement": "Supplementary Figure 1: PP activity", "setting": "[1]; 0.27 g/mL DJ001", "value": "99 and 95 (2×)"}, {"measurement": "radiation-induced apoptosis of human CD34+CD38− cells", "setting": "human CD34+CD38− cells; 24 h after 300 cGy", "value": "decreased radiation-induced apoptosis"}, {"measurement": "Figure 5c (left panel): Annexin V/7AAD assay", "setting": "human CD34+CD38− cells; [6]", "value": "85.79 and 85.23 and 84.4 and 88.36 and 87.91 and 86.9 and 86.4 and 88.8 and 87.8 and 88"}, {"measurement": "Figure 5c (right panel): Annexin V/7AAD assay", "setting": "human CD34+CD38− cells; [6]", "value": "10.98 and 10.1 and 10.94 and 7.63 and 8.04 and 12.5 and 13.3 and 11 and 12.1 and 11.7"}, {"measurement": "Supplementary Figure 1: PTPN22 activity", "setting": "[2]; 2.7 μg/mL DJ001", "value": "94 (2×) and 89"}, {"measurement": "Supplementary Figure 1: PTPN22 activity", "setting": "[2]; 0.27 g/mL DJ001", "value": "103 and 99 and 94"}, {"measurement": "Supplementary Figure 1: LMPTP-B activity", "setting": "[3]; 0.27 g/mL DJ001", "value": "96 and 90 and 99"}, {"measurement": "Supplementary Figure 1: LMPTP-B activity", "setting": "[3]; 2.7 g/mL DJ001", "value": "99 and 100 and 91"}, {"measurement": "Supplementary Figure 1: VHR activity", "setting": "[4]; 2.7 μg/mL DJ001", "value": "94 and 84 and 95"}, {"measurement": "Supplementary Figure 1: VHR activity", "setting": "[4]; 0.27 g/mL DJ001", "value": "100 and 101 and 98"}, {"measurement": "Supplementary Figure 1: CD45 activity", "setting": "[5]; 0.27 μg/mL DJ001", "value": "91 and 86 and 84"}, {"measurement": "Supplementary Figure 1: CD45 activity", "setting": "[5]; 2.7 μg/mL DJ001", "value": "71 and 85 and 86"}]}]}
